In patent US11160816B2, “Composition for treatment of Alzheimer's disease” (GLOVIA COMPANY LIMITED, priority 2017, dated 2021):

Experiments:
[1] = test system: oligodendrocyte progenitor cell; conditions: cultivation in the presence of the substance; cited from earlier work
[2] = test system: oligodendrocyte precursor cells (OPCs); assay: Cultivation of oligodendrocyte precursor cells, phase-contrast observation of proliferation and differentiation (FIG. 2); format: cell-based, mice; conditions: final concentration of each 10 μM, cultivated for 48 hours, compared with control (PBS alone)
[3] = test system: oligodendrocyte precursor cells (OPCs); assay: O1 antibody immunostaining of cultivated OPCs, ratio of O1 positive oligodendrocytes (FIG. 3); format: cell-based, mice; conditions: final concentration of each 0.1 mM, 48 hours, compared with control
stroke patients = conditions: cited from earlier work
[4] = test system: mild to moderate Alzheimer patients; conditions: 400 mg capsule 3 times per day for 180 days; cited from earlier work
[5] = stroke patients, nonpatent document 6

SMILES	generation of p-21.5kDaMBP, proliferation and differentiation of oligodendrocyte progenitor cell [1]	proliferation and differentiation of OPCs (phase-contrast photos) [2]	ratio of O1 positive oligodendrocytes against the number of total cells [3]	cognitive abilities (stroke patients; 1000 mg per day for 28 days, then oral 400 mg per day for 5 months, 2,044 stroke patients)	harmful adverse drug reactions, share of patients (stroke patients; [5]) [%]	headache, share of patients (stroke patients; [5]) [%]	heartburn, share of patients (stroke patients; [5]) [%]	insomnia/agitation, share of patients (stroke patients; [5]) [%]	patients who hoped for stop of treatment (stroke patients; [5]) [%]	vomiturition/emesis, share of patients (stroke patients; [5]) [%]	cognitive function [4]
COc1ccc([C@@H]2CC(=O)c3c(O)cc(O[C@@H]4O[C@H](CO[C@@H]5O[C@@H](C)[C@H](O)[C@@H](O)[C@H]5O)[C@@H](O)[C@H](O)[C@H]4O)cc3O2)cc1O [hesperidin]	promoted the generation of p-21.5kDaMBP	proliferation and differentiation of OPCs proceeds									
C[C@@H]1O[C@@H](OC[C@H]2O[C@@H](Oc3cc(O)c4c(c3)O[C@H](c3ccc(O)cc3)CC4=O)[C@H](O)[C@@H](O)[C@@H]2O)[C@H](O)[C@H](O)[C@H]1O [narirutin]	promoted the generation of p-21.5kDaMBP	proliferation and differentiation of OPCs proceeds									
C[N+](C)(C)CCOP(=O)([O-])OC[C@H](O)CO [α-GPC, L-α-glycerylphosphorylcholine]		proliferation and differentiation of OPCs proceeds	hardly increases compared with the control	recovery of the patients' cognitive abilities	2.14	0.2	0.7	0.4	0.7	0.5	improving effect on cognitive function
